In article PMC8070189, “Native Structure-Based Peptides as Potential Protein–Protein Interaction Inhibitors of SARS-CoV-2 Spike Protein and Human ACE2 Receptor” (Molecules, 2021):

Target: RBD domain of SARS-CoV-2 protein (Severe acute respiratory syndrome coronavirus 2, UniProt P0DTC2)
Type: binding

MYEEFKAED
binding affinity to RBD of S protein, in words: extremely weak binder
